Measured values taken from ChEMBL document CHEMBL4411260, “Dual Inhibition of TYK2 and JAK1 for the Treatment of Autoimmune Diseases: Discovery of (( S)-2,2-Difluorocyclopropyl)((1 R,5 S)-3-(2-((1-methyl-1 H-pyrazol-4-yl)amino)pyrimidin-4-yl)-3,8-diazabicyclo[3.2.1]octan-8-yl)methanone (PF-06700841)” (J Med Chem, 2018).
In brackets after ≈: the same amount, converted by molar mass.

What was measured:
[1] = Passive apparent permeability from apical to basolateral side in RRCK cells; assay type: ADME, cell-based, Canis lupus familiaris, MDCKII-LE; conditions: dog, MDCK
[2] = Unbound intrinsic clearance in human hepatocytes assessed as per million cells; assay type: ADME, cell-based, Hepatocyte
[3] = Solubility of compound in fed state simulated intestinal fluid; assay type: physicochemical
[4] = Unbound intrinsic clearance in human liver microsomes assessed as per mg protein; assay type: ADME, Microsome
[5] = Drug metabolism in monkey liver microsomes assessed as N-dealkylation; assay type: ADME, Macaca mulatta, Microsome; conditions: rhesus monkey
physchem = conditions: octanol/water phosphate buffer, pH 7.4
[6] = Drug metabolism in monkey liver microsomes assessed as oxidative metabolite formation; assay type: ADME, Macaca mulatta, Microsome; conditions: rhesus monkey
[7] = Drug metabolism in monkey liver microsomes assessed as CYP3A4-mediated metabolism; assay type: ADME, Macaca mulatta; conditions: rhesus monkey
[8] = Drug metabolism in human liver microsomes assessed as N-demethylation; assay type: ADME, Microsome
[9] = Drug metabolism in rat liver microsomes assessed as oxidative metabolite formation; assay type: ADME, Microsome
[10] = Drug metabolism in rat liver microsomes assessed as N-dealkylation; assay type: ADME, Microsome
[11] = molecular target: T1, Vascular endothelial growth factor receptor 2 (Homo sapiens, UniProt P35968); experiment: Inhibition of VEGFR2 (unknown origin) by cell based assay
[12] = molecular target: T1, Vascular endothelial growth factor receptor 2; experiment: Inhibition of recombinant human VEGFR2 using Ulight-CAGAGAIETDKEYYTVKD as substrate after 60 mins
Cytochrome P450 3A4 = Cytochrome P450 3A4 (Homo sapiens, UniProt P08684); experiment: Drug metabolism in human liver microsomes assessed as CYP3A4-mediated metabolism; assay type: ADME
[13] = Drug metabolism in monkey liver microsomes assessed as oxidation of N-methy pyrazole; assay type: ADME, Macaca mulatta, Microsome; conditions: rhesus monkey
[14] = Drug metabolism in human liver microsomes assessed as N-dealkylation; assay type: ADME, Microsome
[15] = Drug metabolism in monkey liver microsomes assessed as N-demethylation; assay type: ADME, Macaca mulatta, Microsome; conditions: rhesus monkey
[16] = Drug metabolism in rat liver microsomes assessed as CYP3A4-mediated metabolism; assay type: ADME
[17] = Solubility of compound in fasted state simulated intestinal fluid; assay type: physicochemical
[18] = Fraction unbound in human plasma; assay type: ADME, cell-free
[19] = Drug metabolism in rat liver microsomes assessed as oxidation of N-methy pyrazole; assay type: ADME, Microsome
[20] = Drug metabolism in human liver microsomes assessed as oxidation of N-methy pyrazole; assay type: ADME, Microsome
[21] = Drug metabolism in rat liver microsomes assessed as N-demethylation; assay type: ADME, Microsome
[22] = Thermodynamic equilibrium solubility of the compound at pH 7.64 phosphate buffer saline by UPLC analysis; assay type: physicochemical; conditions: read-out: Therm_solubility
[23] = Fraction unbound in rat plasma; assay type: ADME, cell-free
[24] = Drug metabolism in human liver microsomes assessed as oxidative metabolite formation; assay type: ADME, Microsome
[25] = molecular target: Activated CDC42 kinase 1 (Homo sapiens) (UniProt Q07912); experiment: Inhibition of N-terminal GST tagged human ACK (110 to 476 residues) catalytic domain expressed in baculovirus expression system at 1 uM in presence of ATP at its Km level relative to control
[26] = molecular target: Macrophage colony-stimulating factor 1 receptor (Homo sapiens) (UniProt P07333); experiment: Inhibition of N-terminal GST tagged human FMS (538 to 972 end residues) cytoplasmic domain expressed in baculovirus expression system at 1 uM in presence of ATP at its Km level relative to control
[27] = molecular target: Non-receptor tyrosine-protein kinase TNK1 (Homo sapiens) (UniProt Q13470); experiment: Inhibition of N-terminal GST tagged human TNK1 (106 to 390 residues) catalytic domain expressed in baculovirus expression system at 1 uM in presence of ATP at its Km level relative to control
[28] = molecular target: T2, Non-receptor tyrosine-protein kinase TYK2 (Homo sapiens, UniProt P29597); experiment: Inhibition of N-terminal GST tagged human TYK2 (871 to 1187 end residues) catalytic domain expressed in baculovirus expression system at 1 uM in presence of ATP at its Km level relative to control
[29] = molecular target: T3, Tyrosine-protein kinase JAK1 (Homo sapiens, UniProt P23458); experiment: Inhibition of N-terminal GST tagged human JAK1 (850 to 1154 end residues) catalytic domain expressed in baculovirus expression system at 1 uM in presence of ATP at its Km level relative to control
[30] = molecular target: Serine/threonine-protein kinase SIK1 (Homo sapiens) (UniProt P57059); experiment: Inhibition of N-terminal GST tagged full length human SIK (1 to 783 end residues) expressed in baculovirus expression system at 1 uM in presence of ATP at its Km level relative to control
[31] = system: Platelet-derived growth factor receptor alpha (Homo sapiens), P16234 [T674I]; experiment: Inhibition of N-terminal GST tagged human PDGFRalpha (550 to 1089 end residues) catalytic domain T674I mutant expressed in baculovirus expression system at 1 uM in presence of ATP at its Km level relative to control
[32] = molecular target: Platelet-derived growth factor receptor beta (Homo sapiens) (UniProt P09619); experiment: Inhibition of N-terminal GST tagged human PDGFRbeta (557 to 1106 end residues) cytoplasmic domain expressed in baculovirus expression system at 1 uM in presence of ATP at its Km level relative to control
[33] = molecular target: Non-receptor tyrosine-protein kinase TNK1 (Homo sapiens) (UniProt Q13470); experiment: Inhibition of N-terminal GST tagged human TNK1 (106 to 390 residues) catalytic domain expressed in baculovirus expression system at 1 uM in presence of 1 mM ATP relative to control
[34] = molecular target: NUAK family SNF1-like kinase 1 (Homo sapiens) (UniProt O60285); experiment: Inhibition of N-terminal GST tagged full length human Nuak1 (1 to 661 end residues) expressed in baculovirus expression system at 1 uM in presence of ATP at its Km level relative to control
[35] = system: Platelet-derived growth factor receptor alpha (Homo sapiens), P16234 [V561D]; experiment: Inhibition of N-terminal GST tagged human PDGFRalpha (550 to 1089 end residues) catalytic domain V561D mutant expressed in baculovirus expression system at 1 uM in presence of ATP at its Km level relative to control
[36] = molecular target: Aurora kinase A (Homo sapiens) (UniProt O14965); experiment: Inhibition of N-terminal GST tagged full length human AurA (1 to 403 end residues) expressed in baculovirus expression system at 1 uM in presence of ATP at its Km level relative to control
[37] = molecular target: MAP/microtubule affinity-regulating kinase 3 (Homo sapiens) (UniProt P27448); experiment: Inhibition of N-terminal GST tagged full length human MARK3 (1 to 729 end residues) expressed in baculovirus expression system at 1 uM in presence of ATP at its Km level relative to control
[38] = molecular target: T4, Tyrosine-protein kinase JAK2 (Homo sapiens, UniProt O60674); experiment: Inhibition of N-terminal His tagged human JAK2 (826 to 1132 end residues) catalytic domain expressed in baculovirus expression system at 1 uM in presence of ATP at its Km level relative to control
[39] = molecular target: Tyrosine-protein kinase JAK3 (Homo sapiens) (UniProt P52333); experiment: Inhibition of N-terminal His tagged human JAK3 (795 to 1124 end residues) catalytic domain expressed in baculovirus expression system at 1 uM in presence of ATP at its Km level relative to control
[40] = molecular target: Dual specificity mitogen-activated protein kinase kinase 5 (Homo sapiens) (UniProt Q13163); experiment: Inhibition of N-terminal GST tagged full length human MAP2K5 (1 to 448 end residues) co-expressing His tagged MAP3K3/ CDC37/HSP90 expressed in baculovirus expression system at 1 uM in presence of ATP at its Km level relative to control
[41] = molecular target: Platelet-derived growth factor receptor alpha (Homo sapiens) (UniProt P16234); experiment: Inhibition of N-terminal GST tagged human PDGFRalpha (550 to 1089 end residues) cytoplasmic domain expressed in baculovirus expression system at 1 uM in presence of ATP at its Km level relative to control
[42] = molecular target: MAP/microtubule affinity-regulating kinase 4 (Homo sapiens) (UniProt Q96L34); experiment: Inhibition of N-terminal GST tagged full length human MARK4 (1 to 688 end residues) expressed in baculovirus expression system at 1 uM in presence of ATP at its Km level relative to control
[43] = molecular target: Serine/threonine-protein kinase SIK2 (Homo sapiens) (UniProt Q9H0K1); experiment: Inhibition of N-terminal GST tagged full length human QIK (1 to 926 end residues) expressed in baculovirus expression system at 1 uM in presence of ATP at its Km level relative to control
[44] = molecular target: T3, Tyrosine-protein kinase JAK1; experiment: Inhibition of N-terminal GST tagged human JAK1 (850 to 1154 end residues) catalytic domain expressed in baculovirus expression system at 1 uM in presence of 1 mM ATP relative to control
[45] = molecular target: MAP kinase-interacting serine/threonine-protein kinase 2 (Homo sapiens) (UniProt Q9HBH9); experiment: Inhibition of N-terminal GST tagged full length human MNK2 (1 to 465 end residues) expressed in baculovirus expression system at 1 uM in presence of ATP at its Km level relative to control
[46] = molecular target: Mitogen-activated protein kinase 7 (Homo sapiens) (UniProt Q13164); experiment: Inhibition of N-terminal GST tagged human ERK5 (1 to 398 residues) cytoplasmic domain expressed in Escherichia coli at 1 uM in presence of ATP at its Km level relative to control
Rattus norvegicus = experiment: Antiarthritic activity in complete freund's adjuvant-induced Lewis rat arthritis model assessed as reduction in paw volume administered orally as once daily dose via gavage treated for 7 consecutive days by plethysmography; assay type: functional, organism-based
[47] = molecular target: T2, Non-receptor tyrosine-protein kinase TYK2; experiment: Inhibition of N-terminal GST tagged human TYK2 (871 to 1187 end residues) catalytic domain expressed in baculovirus expression system at 1 uM in presence of 1 mM ATP relative to control
[48] = molecular target: T4, Tyrosine-protein kinase JAK2; experiment: Inhibition of N-terminal His tagged human JAK2 (826 to 1132 end residues) catalytic domain expressed in baculovirus expression system at 1 uM in presence of 1 mM ATP relative to control

T4 sequence (O60674 whole entry, the tested form may be a part): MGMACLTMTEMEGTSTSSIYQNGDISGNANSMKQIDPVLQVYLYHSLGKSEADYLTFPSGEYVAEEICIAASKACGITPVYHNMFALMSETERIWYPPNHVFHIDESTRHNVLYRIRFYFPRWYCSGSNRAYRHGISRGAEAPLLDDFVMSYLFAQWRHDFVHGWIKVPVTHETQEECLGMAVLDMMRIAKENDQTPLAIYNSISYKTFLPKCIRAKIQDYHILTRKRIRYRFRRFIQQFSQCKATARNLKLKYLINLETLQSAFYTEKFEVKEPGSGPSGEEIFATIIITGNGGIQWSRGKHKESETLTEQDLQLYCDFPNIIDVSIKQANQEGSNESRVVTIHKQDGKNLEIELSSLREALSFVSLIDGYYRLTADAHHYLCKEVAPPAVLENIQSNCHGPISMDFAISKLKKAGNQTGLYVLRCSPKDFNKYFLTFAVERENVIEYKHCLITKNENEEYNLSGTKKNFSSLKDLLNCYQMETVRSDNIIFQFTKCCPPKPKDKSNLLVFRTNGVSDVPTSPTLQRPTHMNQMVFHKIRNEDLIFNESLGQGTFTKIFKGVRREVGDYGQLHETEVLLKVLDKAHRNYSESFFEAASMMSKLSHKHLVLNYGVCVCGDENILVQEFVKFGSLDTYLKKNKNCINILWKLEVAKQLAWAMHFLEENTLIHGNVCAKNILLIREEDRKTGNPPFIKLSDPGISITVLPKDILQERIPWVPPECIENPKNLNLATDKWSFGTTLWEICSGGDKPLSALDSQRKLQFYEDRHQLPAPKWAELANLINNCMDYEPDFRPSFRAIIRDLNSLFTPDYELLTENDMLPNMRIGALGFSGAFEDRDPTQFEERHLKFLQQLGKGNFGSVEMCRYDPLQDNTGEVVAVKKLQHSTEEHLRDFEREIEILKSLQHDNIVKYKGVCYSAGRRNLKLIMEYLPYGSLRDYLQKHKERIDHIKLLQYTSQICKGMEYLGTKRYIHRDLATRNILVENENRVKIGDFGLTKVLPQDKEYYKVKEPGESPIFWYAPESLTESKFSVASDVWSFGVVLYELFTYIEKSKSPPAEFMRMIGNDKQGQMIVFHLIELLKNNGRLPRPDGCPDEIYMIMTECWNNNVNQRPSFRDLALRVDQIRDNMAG
T2 sequence (P29597 whole entry, the tested form may be a part): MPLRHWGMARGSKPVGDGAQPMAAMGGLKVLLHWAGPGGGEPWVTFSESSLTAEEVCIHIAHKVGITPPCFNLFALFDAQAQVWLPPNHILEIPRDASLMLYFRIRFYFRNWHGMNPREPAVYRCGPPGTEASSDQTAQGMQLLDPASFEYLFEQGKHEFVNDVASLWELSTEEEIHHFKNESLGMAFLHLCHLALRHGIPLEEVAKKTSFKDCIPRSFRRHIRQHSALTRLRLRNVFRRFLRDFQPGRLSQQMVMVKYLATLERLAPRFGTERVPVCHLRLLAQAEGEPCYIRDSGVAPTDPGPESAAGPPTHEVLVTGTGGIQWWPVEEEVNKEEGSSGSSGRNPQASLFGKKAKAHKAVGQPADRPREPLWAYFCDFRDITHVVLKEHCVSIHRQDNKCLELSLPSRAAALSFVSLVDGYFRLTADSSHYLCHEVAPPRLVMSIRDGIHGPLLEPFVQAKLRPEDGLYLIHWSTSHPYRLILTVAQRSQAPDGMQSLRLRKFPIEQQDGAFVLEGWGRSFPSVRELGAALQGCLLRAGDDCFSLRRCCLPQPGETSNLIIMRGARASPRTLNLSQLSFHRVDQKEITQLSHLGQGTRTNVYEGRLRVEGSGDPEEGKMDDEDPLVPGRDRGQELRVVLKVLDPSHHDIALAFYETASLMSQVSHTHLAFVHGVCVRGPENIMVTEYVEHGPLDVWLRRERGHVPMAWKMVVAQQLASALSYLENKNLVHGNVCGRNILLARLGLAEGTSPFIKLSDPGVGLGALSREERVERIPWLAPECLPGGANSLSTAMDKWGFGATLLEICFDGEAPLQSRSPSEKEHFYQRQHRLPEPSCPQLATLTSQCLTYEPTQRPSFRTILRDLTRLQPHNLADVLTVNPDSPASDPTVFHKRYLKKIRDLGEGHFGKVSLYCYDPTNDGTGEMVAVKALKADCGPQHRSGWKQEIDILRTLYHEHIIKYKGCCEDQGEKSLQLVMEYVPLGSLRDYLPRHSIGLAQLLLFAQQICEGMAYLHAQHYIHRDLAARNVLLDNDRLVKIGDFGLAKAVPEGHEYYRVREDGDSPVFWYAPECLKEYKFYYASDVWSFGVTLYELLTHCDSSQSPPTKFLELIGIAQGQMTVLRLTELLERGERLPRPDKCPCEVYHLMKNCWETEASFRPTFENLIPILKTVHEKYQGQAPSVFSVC
T1 sequence (P35968 whole entry): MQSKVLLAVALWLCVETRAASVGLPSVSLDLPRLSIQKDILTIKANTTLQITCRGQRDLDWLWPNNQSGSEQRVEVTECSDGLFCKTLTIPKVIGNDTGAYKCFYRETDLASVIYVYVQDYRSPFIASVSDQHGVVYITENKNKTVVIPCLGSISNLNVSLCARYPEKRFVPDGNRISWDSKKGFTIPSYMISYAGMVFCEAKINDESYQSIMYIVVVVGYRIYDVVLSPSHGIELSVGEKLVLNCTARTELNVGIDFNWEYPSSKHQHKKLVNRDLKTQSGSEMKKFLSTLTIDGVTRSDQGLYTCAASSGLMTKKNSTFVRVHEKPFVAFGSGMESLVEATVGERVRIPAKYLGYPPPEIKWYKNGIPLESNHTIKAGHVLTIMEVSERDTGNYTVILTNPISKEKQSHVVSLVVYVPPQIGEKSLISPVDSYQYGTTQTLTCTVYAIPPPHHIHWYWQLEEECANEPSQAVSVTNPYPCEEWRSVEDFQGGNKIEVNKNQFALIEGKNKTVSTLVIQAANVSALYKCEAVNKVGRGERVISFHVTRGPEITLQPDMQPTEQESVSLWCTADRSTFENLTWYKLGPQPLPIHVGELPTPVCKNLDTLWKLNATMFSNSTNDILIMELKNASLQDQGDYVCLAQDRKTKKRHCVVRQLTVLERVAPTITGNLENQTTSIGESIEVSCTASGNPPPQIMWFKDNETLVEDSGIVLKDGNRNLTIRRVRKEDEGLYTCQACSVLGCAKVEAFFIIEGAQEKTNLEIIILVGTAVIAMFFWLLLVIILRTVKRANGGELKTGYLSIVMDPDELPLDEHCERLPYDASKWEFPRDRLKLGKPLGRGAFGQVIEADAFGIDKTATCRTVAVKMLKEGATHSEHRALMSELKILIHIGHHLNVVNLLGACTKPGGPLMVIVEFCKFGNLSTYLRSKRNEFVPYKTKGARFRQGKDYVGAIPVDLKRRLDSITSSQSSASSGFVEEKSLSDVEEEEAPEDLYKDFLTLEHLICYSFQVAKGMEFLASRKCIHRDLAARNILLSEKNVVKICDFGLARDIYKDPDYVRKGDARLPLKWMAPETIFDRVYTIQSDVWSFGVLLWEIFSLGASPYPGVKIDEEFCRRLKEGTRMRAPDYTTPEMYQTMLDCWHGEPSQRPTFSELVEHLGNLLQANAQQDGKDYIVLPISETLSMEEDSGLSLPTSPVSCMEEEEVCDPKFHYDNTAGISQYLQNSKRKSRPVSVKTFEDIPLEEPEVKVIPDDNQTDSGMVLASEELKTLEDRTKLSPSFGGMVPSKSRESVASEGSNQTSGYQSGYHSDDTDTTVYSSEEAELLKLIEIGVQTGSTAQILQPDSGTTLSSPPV
T3 sequence (P23458 whole entry, the tested form may be a part): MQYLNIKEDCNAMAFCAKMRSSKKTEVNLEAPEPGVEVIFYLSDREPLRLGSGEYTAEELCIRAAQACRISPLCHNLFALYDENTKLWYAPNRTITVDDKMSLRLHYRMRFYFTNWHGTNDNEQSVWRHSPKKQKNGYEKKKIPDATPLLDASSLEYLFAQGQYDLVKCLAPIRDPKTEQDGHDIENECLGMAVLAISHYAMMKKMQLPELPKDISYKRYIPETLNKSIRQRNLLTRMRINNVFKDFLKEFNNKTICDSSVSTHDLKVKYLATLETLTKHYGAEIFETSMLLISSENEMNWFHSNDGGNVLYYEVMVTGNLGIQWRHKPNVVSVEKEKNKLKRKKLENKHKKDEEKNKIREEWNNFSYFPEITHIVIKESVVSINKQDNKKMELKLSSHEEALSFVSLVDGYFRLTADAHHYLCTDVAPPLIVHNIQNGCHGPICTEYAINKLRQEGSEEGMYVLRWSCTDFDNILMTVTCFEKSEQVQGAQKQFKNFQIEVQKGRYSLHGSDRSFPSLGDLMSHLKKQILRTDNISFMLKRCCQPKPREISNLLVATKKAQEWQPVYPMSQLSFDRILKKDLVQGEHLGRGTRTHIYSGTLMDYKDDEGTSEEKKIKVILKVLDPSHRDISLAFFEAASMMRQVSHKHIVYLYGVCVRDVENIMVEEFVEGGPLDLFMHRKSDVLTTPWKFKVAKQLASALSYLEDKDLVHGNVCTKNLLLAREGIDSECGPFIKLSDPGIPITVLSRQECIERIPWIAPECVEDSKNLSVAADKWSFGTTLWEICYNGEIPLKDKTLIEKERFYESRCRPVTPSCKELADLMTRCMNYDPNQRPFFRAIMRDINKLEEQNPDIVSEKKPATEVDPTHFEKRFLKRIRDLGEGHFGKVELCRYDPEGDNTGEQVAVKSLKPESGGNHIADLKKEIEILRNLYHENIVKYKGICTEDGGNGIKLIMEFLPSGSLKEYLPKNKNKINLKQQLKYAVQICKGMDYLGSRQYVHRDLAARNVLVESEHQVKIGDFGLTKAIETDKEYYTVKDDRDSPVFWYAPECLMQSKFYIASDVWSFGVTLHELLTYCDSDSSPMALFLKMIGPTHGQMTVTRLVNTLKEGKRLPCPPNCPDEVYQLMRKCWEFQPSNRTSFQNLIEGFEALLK

Cn1cc(Nc2nccc(N3CC4CC[C@H](C3)N4C(=O)[C@@H]3CC3(F)F)n2)cn1 (single isomer, unassigned) [listing 1 of 2 here]
Papp A→B [1]: 18.8 ×10⁻⁶ cm/s
CL free [2]: < 0.6 µL/min
solubility [3]: > 7000 µg/mL
CL free [4]: < 10 µL/min
Drug metabolism [5]: Metabolite_Detected
logD (physchem): 1.61
Drug metabolism [6]: Metabolite_Detected
Drug metabolism [7]: Metabolite_Detected
Drug metabolism [8]: Metabolite_Detected
Drug metabolism [9]: Metabolite_Detected
Drug metabolism [10]: Metabolite_Detected
IC50 [11]: > 30 µM
IC50 [12]: 1.6 µM
Drug metabolism (Cytochrome P450 3A4): Metabolite_Detected
Drug metabolism [13]: Metabolite_Detected
Drug metabolism [14]: Metabolite_Detected
Drug metabolism [15]: Metabolite_Detected
Drug metabolism [16]: Metabolite_Detected
solubility [17]: > 7000 µg/mL
fraction unbound [18]: 0.61
Drug metabolism [19]: Metabolite_Detected
Drug metabolism [20]: Metabolite_Detected
Drug metabolism [21]: Metabolite_Detected
solubility thermodynamic [22]: 4840 µg/mL (≈ 12.4 mM)
fraction unbound [23]: 0.69
Drug metabolism [24]: Metabolite_Detected

Cn1cc(Nc2nccc(N3CC4CC[C@H](C3)N4C(=O)[C@@H]3CC3(F)F)n2)cn1 (single isomer, unassigned) [listing 2 of 2 here]
inhibition [25]: 82%
inhibition [26]: 59%
inhibition [27]: 94%
inhibition [28]: 101%
inhibition [29]: 101%
inhibition [30]: 77%
inhibition [31]: 78%
inhibition [32]: 66%
inhibition [33]: 64%
inhibition [34]: 60%
inhibition [35]: 60%
inhibition [36]: 62%
inhibition [37]: 50%
inhibition [38]: 101%
inhibition [39]: 92%
inhibition [40]: 70%
inhibition [41]: 70%
inhibition [42]: 59%
inhibition [43]: 91%
inhibition [44]: 96%
inhibition [45]: 68%
inhibition [46]: 63%
Activity (Rattus norvegicus): Dose-dependent effect
inhibition [47]: 98%
inhibition [48]: 94%
